Experiment [1] concerns nicotinic receptors mediating S-nicotine-evoked [^3H]DA release in rat striatal slices. In words: Inhibition of S-nicotine-evoked [^3H]dopamine release from superfused rat striatal slices. The conditions noted are these: for inhibition at 0.1 µM: 1 h, read-out: [^3H]DA release, % inhibition of S-nicotine-evoked release. It counts as cell-based. In short, it runs like this:
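Superfused rat striatal slices preloaded with 0.1 μM [3H]DA, in Krebs buffer with nomifensine and pargyline (10 μM each), 34 °C. Analogs (100 nM) given 60 min before 10 μM S-nicotine; tritium overflow by scintillation, inhibition expressed as percent of nicotine-evoked overflow without analog; full concentration-effect curves where […] given.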

Experiment [2] addresses T1, Rat Striatal Nicotinic Receptors ([^3H]NIC binding sites; α4β2) (Rattus norvegicus, UniProt P09483+P12390).
T1 construct: Whole brain, excluding cortex and cerebellum, was homogenized in 20 vol of ice-cold buffer; from tissue; host or cells: rat brain membranes (whole brain excluding cortex and cerebellum)
In words: Inhibition of [^3H]NIC binding.

Experiment [3] addresses T2, Rat Striatal Nicotinic Receptors ([^3H]MLA binding sites; α7) (Rattus norvegicus, UniProt Q05941).
T2 construct: Whole brain, excluding cortex and cerebellum, was homogenized in 20 vol of ice-cold buffer; from tissue; host or cells: rat brain membranes (whole brain excluding cortex and cerebellum)
The experiment is described as follows: Inhibition of [^3H]MLA (methyllycaconitine) binding. In short, it runs like this:
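Rat brain membranes were washed by repeated centrifugation at 25,000 g, with a 10 min incubation at 37° C. in between. Samples of 250 μl, containing 100-140 μg of membrane protein, 3 nM [^3H]-methyllycaconitine and test analog in 50 mM Tris assay buffer, were incubated in 96-well plates for 60 min at room temperature. Nonspecific binding was defined with 10 μM S-nicotine. Bound radioactivity was collected on polyethylenimine-soaked GF/B filter plates and counted on a TopCount.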

The mark [4] stands for this setting: full concentration effect, 3 nM [^3H]NIC, nonspecific 10 μM cytisine, rat brain membranes, read-out: [^3H]NIC binding, Ki.
The mark [5] stands for this setting: full concentration effect, [^3H]MLA, nonspecific S-nicotine, rat brain membranes, read-out: [^3H]MLA binding, Ki.
[6] abbreviates: 100 nM analog superfused 60 min before NIC 10 μM, rat striatal slices.

SMILES strings stand for the structures. Read-outs that look alike come from different tables or passages of the source.

T2 sequence (Q05941 23-502): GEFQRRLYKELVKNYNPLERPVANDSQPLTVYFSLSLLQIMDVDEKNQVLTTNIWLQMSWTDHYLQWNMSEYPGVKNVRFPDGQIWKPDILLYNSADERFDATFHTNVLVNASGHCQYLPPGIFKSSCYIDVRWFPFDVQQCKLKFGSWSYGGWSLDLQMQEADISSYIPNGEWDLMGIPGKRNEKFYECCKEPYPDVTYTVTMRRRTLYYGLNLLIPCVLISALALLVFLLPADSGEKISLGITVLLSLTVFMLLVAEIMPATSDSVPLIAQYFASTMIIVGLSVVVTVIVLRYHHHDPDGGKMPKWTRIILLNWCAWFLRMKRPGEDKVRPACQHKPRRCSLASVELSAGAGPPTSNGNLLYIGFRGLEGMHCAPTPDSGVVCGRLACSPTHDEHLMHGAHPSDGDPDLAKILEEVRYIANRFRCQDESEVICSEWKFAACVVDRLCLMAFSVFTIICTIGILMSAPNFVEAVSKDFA
T1 sequence (P09483 31-630): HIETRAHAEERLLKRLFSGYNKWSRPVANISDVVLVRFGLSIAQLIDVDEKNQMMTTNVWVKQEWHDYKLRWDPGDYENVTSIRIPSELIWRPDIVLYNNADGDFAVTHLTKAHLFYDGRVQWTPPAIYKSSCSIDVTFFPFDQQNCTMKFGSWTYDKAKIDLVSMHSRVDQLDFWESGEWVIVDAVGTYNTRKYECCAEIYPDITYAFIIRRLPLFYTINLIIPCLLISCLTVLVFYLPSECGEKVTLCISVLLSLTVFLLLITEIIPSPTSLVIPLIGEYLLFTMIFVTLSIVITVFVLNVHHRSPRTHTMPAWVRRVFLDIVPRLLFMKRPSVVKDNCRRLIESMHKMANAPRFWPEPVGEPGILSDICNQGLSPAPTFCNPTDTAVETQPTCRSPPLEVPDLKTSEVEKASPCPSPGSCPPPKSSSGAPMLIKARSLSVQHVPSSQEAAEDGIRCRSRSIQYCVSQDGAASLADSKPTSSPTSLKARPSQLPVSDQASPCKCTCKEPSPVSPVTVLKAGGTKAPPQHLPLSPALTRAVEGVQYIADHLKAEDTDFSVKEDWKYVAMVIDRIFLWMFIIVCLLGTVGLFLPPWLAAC
T1 sequence (P12390 25-500): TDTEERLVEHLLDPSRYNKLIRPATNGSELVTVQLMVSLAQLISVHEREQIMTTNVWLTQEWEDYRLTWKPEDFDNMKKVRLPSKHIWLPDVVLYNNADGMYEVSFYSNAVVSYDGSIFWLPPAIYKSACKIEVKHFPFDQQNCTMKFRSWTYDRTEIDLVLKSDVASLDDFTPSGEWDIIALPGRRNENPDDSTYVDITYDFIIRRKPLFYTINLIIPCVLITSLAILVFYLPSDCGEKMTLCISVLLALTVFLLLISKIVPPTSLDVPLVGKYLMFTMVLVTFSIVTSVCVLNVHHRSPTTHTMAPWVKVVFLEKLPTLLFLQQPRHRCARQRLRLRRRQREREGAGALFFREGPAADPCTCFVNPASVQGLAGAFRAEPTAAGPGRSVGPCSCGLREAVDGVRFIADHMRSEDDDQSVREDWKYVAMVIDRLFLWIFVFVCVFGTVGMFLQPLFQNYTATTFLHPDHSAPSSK

For the compound `CN1CCC[C@H]1c1ccc[n+](CCCC/C=C\C=C/CCCC[n+]2cccc([C@@H]3CCCN3C)c2)c1` [Example 1, cis-cis-N,N′-(dodeca-5,7-diene-1,12-diyl)-bis-[3-(2′-S-1-methyl-pyrrolidin-2-yl)-pyridinium]dibromide], the inhibition at 0.1 µM in experiment [1] (Rattus norvegicus) was 11%. Further, the figures for the Ki in experiment [2] (setting [4]) and in experiment [3] (setting [5]) were 1.09 µM and more than 100 µM, respectively.
Take `Cc1cccc[n+]1CCCC/C=C\C=C/CCCC[n+]1ccccc1C` [Example 2, cis-cis-N,N′-(dodeca-5,7-diene-1,12-diyl)-bis-(2-methyl-pyridinium)dibromide]: the inhibition at 0.1 µM in experiment [1] (Rattus norvegicus) was determined as 0%; in experiment [2] (1 h, read-out: [^3H]NIC binding, % inhibition), 11%; in experiment [3] (read-out: [^3H]MLA binding, % inhibition), 4.2%.
As for `Cc1ccc[n+](CCCC/C=C\C=C/CCCC[n+]2cccc(C)c2)c1` [Example 3, cis-cis-N,N′-(dodeca-5,7-diene-1,12-diyl)-bis-(3-methyl-pyridinium)dibromide], the inhibition at 0.1 µM in experiment [1] (setting [6]) is 31%. Also, the Ki in experiment [2] (setting [4]) and in experiment [3] (setting [5]) was more than 100 µM each time.
As to `Cc1cc[n+](CCCC/C=C\C=C/CCCC[n+]2ccc(C)cc2)cc1` [Example 4, cis-cis-N,N′-(dodeca-5,7-diene-1,12-diyl)-bis-(4-methyl-pyridinium)dibromide], the inhibition at 0.1 µM in experiment [1] (setting [6]) was 58%. The inhibitory constant (Ki) in experiment [2] (setting [4]) and in experiment [3] was more than 100 µM each time.
As for `C(/C=C\CCCC[n+]1ccc2c(c1)CCCC2)=C/CCCC[n+]1ccc2c(c1)CCCC2` [Example 6, cis-cis-N,N′-(dodeca-5,7-diene-1,12-diyl)-bis-(5,6,7,8-tetrahydro-isoquinolinium)dibromide], the Ki worked out at 5.84 µM in experiment [2] (setting [4]) and 3 µM in experiment [3] (setting [5]).
Regarding `CN1CCC[C@@H]1c1ccc[n+](CCCCc2ccc(CCCC[n+]3cccc([C@H]4CCCN4C)c3)cc2)c1` [Example 10, N,N′-[1,4-phenylenedi-(4-butanyl)]-bis-[3-(2′-S-1-methyl-pyrrolidin-2-yl)-pyridinium]dibromide], the inhibition at 0.1 µM in experiment [1] (setting [6]) was 17%. The Ki in experiment [2] (setting [4]) was 0.63 µM; in experiment [3] (setting [5]), more than 100 µM.
Taken in the same sequence, the figures for `Cc1cccc[n+]1CCCCc1ccc(CCCC[n+]2ccccc2C)cc1` [Example 11, N,N′-[1,4-phenylenedi-(4-butanyl)]-bis-(2-methylpyridinium)dibromide] were 37%, 5.94 µM and more than 100 µM.
The like results for `Cc1ccc[n+](CCCCc2ccc(CCCC[n+]3cccc(C)c3)cc2)c1` [Example 12, N,N′-[1,4-phenylenedi-(4-butanyl)]-bis-(3-methylpyridinium)dibromide] were, in that order, 44%, more than 100 µM and more than 100 µM.
The like results for `Cc1cc[n+](CCCCc2ccc(CCCC[n+]3ccc(C)cc3)cc2)cc1` [Example 13, N,N′-[1,4-phenylenedi-(4-butanyl)]-bis-(4-methylpyridinium)dibromide] were, in that order, 32%, more than 100 µM and more than 100 µM.
As to `c1cc2c([n+](CCCCc3ccc(CCCC[n+]4cccc5c4CCCC5)cc3)c1)CCCC2` [Example 15, N,N′-[1,4-phenylenedi-(4-butanyl)]-bis-(5,6,7,8-tetrahydroquinolinium)dibromide], the Ki in experiment [2] (setting [4]) is 12 µM; in experiment [3] (setting [5]), 7.68 µM.
Taken in the same sequence, the figures for `c1cc(CCCC[n+]2ccc3c(c2)CCCC3)ccc1CCCC[n+]1ccc2c(c1)CCCC2` [Example 16, N,N′-[1,4-phenylenedi-(4-butanyl)]-bis-(5,6,7,8-tetrahydroisoquinolinium)dibromide] were more than 100 µM and 15.3 µM.
On to `Cc1cccc[n+]1CCCCC#CC#CCCCC[n+]1ccccc1C` [Example 91, N,N′-(5,7-dodecadiyn-1,12-diyl)-bis-(2-methylpyridinium)dichloride], for which, in experiment [1] (setting [6]), the inhibition at 0.1 µM was 6%. Moreover, the Ki came out at 4.4 µM in experiment [2] (setting [4]) and 23.9 µM in experiment [3] (setting [5]).
Regarding `Cc1ccc[n+](CCCCC#CC#CCCCC[n+]2cccc(C)c2)c1` [Example 92, N,N′-(5,7-dodecadiyn-1,12-diyl)-bis-(3-methylpyridinium)dichloride], the inhibition at 0.1 µM in experiment [1] (setting [6]) stood at 18%. For the same compound, the Ki in experiment [2] was 6.36 µM; in experiment [3], more than 100 µM.
For `Cc1cc[n+](CCCCC#CC#CCCCC[n+]2ccc(C)cc2)cc1` [Example 93, N,N′-(5,7-dodecadiyn-1,12-diyl)-bis-(4-methylpyridinium)dichloride], the inhibition at 0.1 µM in experiment [1] (setting [6]) was 19%. In addition, the Ki turned out to be 8.93 µM in experiment [2] (setting [4]) and 5.11 µM in experiment [3] (setting [5]).
Consider `Cc1cc[n+](CCCCC#CC#CCCCC[n+]2ccc(C)c(C)c2)cc1C` [Example 94, N,N′-(5,7-dodecadiyn-1,12-diyl)-bis-(3,4-dimethylpyridinium)dichloride], for which, in experiment [1] (setting [6]), the inhibition at 0.1 µM amounted to 21%. Also, the Ki in experiment [2] (setting [4]) was 8.6 µM; in experiment [3] (setting [5]), 24.1 µM.
`Cc1cc(C)c[n+](CCCCC#CC#CCCCC[n+]2cc(C)cc(C)c2)c1` [Example 95, N,N′-(5,7-dodecadiyn-1,12-diyl)-bis-(3,5-dimethylpyridinium)dichloride] came in with an IC50 in experiment [1] (NIC 10 μM, rat striatal slices) of more than 1000 nM. In addition, the figures for the Ki in experiment [2] and in experiment [3] were more than 100 µM and 25.6 µM, respectively.
Turning to `C(C#CCCCC[n+]1ccc2c(c1)CCCC2)#CCCCC[n+]1ccc2c(c1)CCCC2` [Example 96, N,N′-(5,7-dodecadiyn-1,12-diyl)-bis-(5,6,7,8-tetrahydroisoquinolinium)dichloride], the Ki in experiment [2] (setting [4]) was 11.3 µM; in experiment [3] (setting [5]), 5.36 µM.
`Cc1ccc[n+](CCC#Cc2ccc(C#CCC[n+]3cccc(C)c3)cc2)c1` [Example 97, N,N′-[(1,4-phenylene)-bis-(4-butynyl)]-bis-(3-methyl-pyridinium)dibromide]: the inhibition at 0.1 µM in experiment [1] (setting [6]) was 21%. Further, the Ki in experiment [2] (setting [4]) is 2.75 ± 0.4 µM; in experiment [3] (setting [5]), more than 100 µM.
As to `Cc1cc[n+](CCC#Cc2ccc(C#CCC[n+]3ccc(C)cc3)cc2)cc1` [Example 98, N,N′-[(1,4-phenylene)-bis-(4-butynyl)]-bis-(4-methyl-pyridinium)dibromide], the inhibition at 0.1 µM in experiment [1] (setting [6]) amounted to 29%. Besides, the Ki in experiment [2] (setting [4]) is 8.5 µM; in experiment [3] (setting [5]) it was more than 100 µM.
Taken in the same sequence, the figures for `C(#Cc1ccc(C#CCC[n+]2ccc3c(c2)CCCC3)cc1)CC[n+]1ccc2c(c1)CCCC2` [Example 99, N,N′-[(1,4-phenylene)-bis-(4-butynyl)]-bis-(5,6,7,8-tetrahydroisoquiolinium)dibromide] were 14%, 8.04 µM and 0.87 µM.

For the origin of these results see patent US8178678B2, “Bis-quaternary ammonium salts and methods for modulating neuronal nicotinic acetylcholine receptors” (University of Kentucky Research Foundation, priority 2006, dated 2012).
